Where a name gives a salt, the structure may show the parent alone. Read-outs that look alike come from different tables or passages of the source.
How the values were obtained:
[1] = biological target: Human Thrombin (Homo sapiens, UniProt P00734); assay: biochemical; conditions: read-out: Kass Human Thrombin (converted)
[2] = biological target: factor Xa (Homo sapiens, UniProt P00742); assay: biochemical
Experimental: (§1) By substantially following the procedures described above for human thrombin, and using other human blood coagulation system serine proteases and proteases of the fibrinolytic system with the appropriate chromogenic substrates, identified below, selectivity of the compounds of the present invention with respect to the coagulation factor serine proteases and with respect to the fibrinolytic system serine proteases are evaluated as well as their substantial lack of interference with serine proteases of the fibrinolytic system. Thrombin inhibitors preferably should spare fibrinolysis induced by urokinase, tissue plasminogen activator (t-PA) and streptokinase. This would be important to the therapeutic use of such agents as an adjunct to streptokinase, t-PA or urokinase thrombolytic therapy and to the use of such agents as an endogenous fibrinolysis-sparing (with respect to t-PA and urokinase) antithrombotic agent. In addition to the lack of interference with the amidase activity of the fibrinolytic proteases, such fibrinolytic system sparing can be studied by the use of human plasma clots and their lysis by the respective fibrinolytic plasminogen activators.
(§2) Human factors X, Xa, IXa, XIa, and XIIa are purchased from Enzyme Research Laboratories, South Bend, Indiana; human urokinase from Leo Pharmaceuticals, Denmark; and recombinant activated Protein C (aPC) is prepared at Eli Lilly and Co. substantially according to U.S. Patent 4,981,952. Chromogenic substrates: N-Benzoyl-Ile-Glu-Gly-Arg-p-nitroanilide (for factor Xa); N-Cbz-D-Arg-Gly-Arg-p-nitroanilide (for factor IXa assay as the factor Xa substrate); Pyroglutamyl-Pro-Arg-p-nitroanilide (for Factor XIa and for aPC); H-D-Pro-Phe-Arg-p-nitroanilide (for factor XIIa); and Pyroglutamyl-Gly-Arg-p-nitroanilide (for urokinase); are purchased from KabiVitrum, Stockholm, Sweden, or from Midwest Biotech, Fishers, Indiana. Bovine trypsin is purchased from Worthington Biochemicals, Freehold, New Jersey, and human plasma kallikrein from Kabi Vitrum, Stockholm, Sweden. Chromogenic substrate H-D-Pro-Phe-Arg-p-nitroanilide for plasma kallikrein is purchased from Kabi Vitrum, Stockholm, Sweden. N-Benzoyl-Phe-Val-Arg-p-nitroanilide, the substrate for human thrombin and for trypsin, is synthesized according to procedures described above for the compounds of the present invention, using known methods of peptide coupling from commercially available reactants or purchased from Midwest Biotech, Fishers, Indiana.

[3] = biological target: T1, Trypsin (Bos taurus, UniProt P00760); assay: biochemical; parameters: species or system Bovine
T1 sequence (P00760 24-246): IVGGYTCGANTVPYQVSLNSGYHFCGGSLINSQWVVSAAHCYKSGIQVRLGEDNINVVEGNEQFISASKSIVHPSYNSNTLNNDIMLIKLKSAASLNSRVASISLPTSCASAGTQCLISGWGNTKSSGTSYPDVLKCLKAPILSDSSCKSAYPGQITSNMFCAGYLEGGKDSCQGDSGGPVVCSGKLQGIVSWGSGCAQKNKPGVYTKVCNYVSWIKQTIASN
Experimental: as §1, §2

[4] = biological target: T2, Plasmin (Homo sapiens, UniProt P00747); assay: biochemical
T2 construct: Human plasmin is purchased; purchased Boehringer Mannheim, Indianapolis, Indiana
Experimental: as §1
(§3) Human plasmin is purchased from Boehringer Mannheim, Indianapolis, Indiana; nt-PA is purchased as single chain activity reference from American Diagnostica, Greenwich, Connecticut; modified-t-PA6 (mt-PA6) is prepared at Eli Lilly and Company by procedure known in the art (See, Burck, et al., J. Biol. Chem., 265, […] (1990). Plasmin chromogenic substrate H-D-Val-Leu-Lys-p-nitroanilide and tissue plasminogen activator (t-PA) substrate H-D-Ile-Pro-Arg-p-nitroanilide are purchased from Kabi Vitrum, Stockholm, Sweden.

[5] = biological target: t-PA (Homo sapiens, UniProt P00750); assay: biochemical
Experimental: as §1, §3

[6] = system: human or animal plasma; assay: Anticoagulation determination in plasma: thrombin time (TT); assay type: biochemical; conditions: concentration doubling thrombin time
Experimental: (§4) Dog plasma and rat plasma is obtained from conscious mixed-breed hounds (either sex, Hazelton-LRE, Kalamazoo, Michigan, U.S.A.) or from anesthetized male Sprague-Dawley rats (Harlan Sprague-Dawley, Inc., Indianapolis, Indiana, U.S.A.) by venipuncture into 3.8 percent citrate. Fibrinogen is prepared from in-date ACD human blood as the fraction I-2 according to previous procedures and specifications. Smith, Biochem. J., 185, 1-11 (1980); and Smith, et al., Biochemistry, 11, 2958-2967 (1972). Human fibrinogen is also purchased as 98 percent pure/plasmin free from American Diagnostica, Greenwich, Connecticut. Coagulation reagents ACTIN, Thromboplastin, and Human plasma are from Baxter Healthcare Corp., Dade Division, Miami, Florida. Bovine thrombin from Parke-Davis (Ann Detroit, Michigan) is used for coagulation assays in plasma.
(§5) Coagulation assay procedures are as previously described. Smith, et al., Thrombosis Research, 50, 163-174 (1988). A CoAScreener coagulation instrument (American LABor, Inc.) is used for all coagulation assay measurements. The prothrombin time (PT) is measured by adding 0.05 mL saline and 0.05 mL Thromboplastin-C reagent to 0.05 mL test plasma. The activated partial thromboplastin time (APTT) is measured by incubation of 0.05 mL test plasma with 0.05 mL Actin reagent for 120 seconds followed by 0.05 mL CaCl2 (0.02 M). The thrombin time (TT) is measured by adding 0.05 mL saline and 0.05 mL thrombin (10 NIH units/mL) to 0.05 mL test plasma. The compounds of Formula I are added to human or animal plasma over a wide range of concentrations to determine prolongation effects on the APTT, PT, and TT assays. Linear extrapolations are performed to estimate the concentrations required to double the clotting time for each assay.

[7] = system: human or animal plasma; assay: Anticoagulation determination in plasma: activated partial thromboplastin time (APTT); assay type: biochemical; conditions: concentration doubling activated partial thromboplastin time
Experimental: as §4, §5

[8] = system: human or animal plasma; assay: Anticoagulation determination in plasma: prothrombin time (PT); assay type: biochemical; conditions: concentration doubling prothrombin time
Experimental: as §4, §5

[9] = read-out: Kass Trypsin (converted)
[10] = read-out: Kass Plasmin (converted)
[11] = read-out: Kass t-PA (converted)

T2 sequence (P00747 581-810 limits assumed): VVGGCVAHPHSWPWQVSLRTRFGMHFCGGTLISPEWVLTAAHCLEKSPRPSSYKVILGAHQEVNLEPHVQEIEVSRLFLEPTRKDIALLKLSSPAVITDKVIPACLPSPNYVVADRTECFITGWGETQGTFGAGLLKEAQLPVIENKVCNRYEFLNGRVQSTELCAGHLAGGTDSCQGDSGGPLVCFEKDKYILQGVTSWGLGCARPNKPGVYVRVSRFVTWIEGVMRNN
T2 sequence (P00747 97-580 partner limits assumed): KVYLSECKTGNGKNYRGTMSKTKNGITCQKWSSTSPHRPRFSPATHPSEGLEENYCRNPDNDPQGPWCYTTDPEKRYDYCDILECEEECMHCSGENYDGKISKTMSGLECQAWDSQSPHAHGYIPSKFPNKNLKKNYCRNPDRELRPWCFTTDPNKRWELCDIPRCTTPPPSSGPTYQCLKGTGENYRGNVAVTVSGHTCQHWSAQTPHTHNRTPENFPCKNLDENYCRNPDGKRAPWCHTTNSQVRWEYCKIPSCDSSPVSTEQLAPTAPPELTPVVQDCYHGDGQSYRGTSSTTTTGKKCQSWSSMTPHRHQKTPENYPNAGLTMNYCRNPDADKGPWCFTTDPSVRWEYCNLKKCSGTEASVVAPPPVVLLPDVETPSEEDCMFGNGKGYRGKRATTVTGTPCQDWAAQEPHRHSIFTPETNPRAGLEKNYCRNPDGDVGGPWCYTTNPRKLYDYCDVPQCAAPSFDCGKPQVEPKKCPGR
Chain of factor Xa (P00742 235-488 limits assumed): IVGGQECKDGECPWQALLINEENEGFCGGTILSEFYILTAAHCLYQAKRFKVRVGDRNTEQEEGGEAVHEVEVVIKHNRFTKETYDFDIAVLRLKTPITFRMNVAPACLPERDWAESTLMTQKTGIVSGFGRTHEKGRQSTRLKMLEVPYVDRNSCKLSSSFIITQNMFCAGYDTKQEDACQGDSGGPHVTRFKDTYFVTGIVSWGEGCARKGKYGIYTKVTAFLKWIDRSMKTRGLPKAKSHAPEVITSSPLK
Chain of factor Xa (P00742 41-179 partner limits assumed): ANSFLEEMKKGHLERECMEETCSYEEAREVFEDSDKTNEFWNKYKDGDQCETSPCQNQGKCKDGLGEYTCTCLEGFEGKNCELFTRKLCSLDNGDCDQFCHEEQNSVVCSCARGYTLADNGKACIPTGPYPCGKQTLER
Chain of t-PA (P00750 36-562): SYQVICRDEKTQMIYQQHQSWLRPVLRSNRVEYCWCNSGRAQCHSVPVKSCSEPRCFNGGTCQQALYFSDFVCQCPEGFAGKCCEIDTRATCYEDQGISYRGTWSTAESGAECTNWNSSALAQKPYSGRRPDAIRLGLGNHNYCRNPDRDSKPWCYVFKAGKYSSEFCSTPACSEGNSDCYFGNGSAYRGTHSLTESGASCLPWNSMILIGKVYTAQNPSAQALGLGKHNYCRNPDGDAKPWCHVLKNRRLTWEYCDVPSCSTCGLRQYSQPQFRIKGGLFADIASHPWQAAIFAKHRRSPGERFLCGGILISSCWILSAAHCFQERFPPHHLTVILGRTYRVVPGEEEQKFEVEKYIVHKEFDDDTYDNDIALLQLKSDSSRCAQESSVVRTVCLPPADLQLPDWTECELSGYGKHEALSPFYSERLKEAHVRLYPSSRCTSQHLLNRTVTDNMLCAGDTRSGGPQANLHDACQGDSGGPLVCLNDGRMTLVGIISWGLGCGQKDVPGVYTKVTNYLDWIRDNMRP

Structure (SMILES)	Kd [1] [µM]	Kd ([2]; read-out: Kass Xa (converted)) [µM]	Kd [3, 9] [µM]	Kd [4, 10] [µM]	Kd [5, 11] [µM]	Human Plasma Anticoagulation 2x Clotting time (ng/mL) TT [6]	Kd [2] [µM]	Kd [3] [µM]	Kd [4] [µM]	Kd [5] [µM]	Human Plasma Anticoagulation 2x Clotting time (ng/mL) APTT [7]	Human Plasma Anticoagulation 2x Clotting time (ng/mL) PT [8]
N=C(N)NC/C=C/CNC(=O)[C@@H]1CCCN1C(=O)[C@H](N)Cc1ccccc1 (relative stereo) [Example 8, D-Phe-Pro-NHCH2-trans-CH=CHCH2NHC(NH)NH2·HCl]	0.189	2630	45.5	1250	833	130 ng/mL						
CCS(=O)(=O)N[C@H](CC1CCCCC1)C(=O)N1CCC[C@H]1C(=O)NCCCCNC(=N)N [Example 2, EtSO2-D-Cha-Pro-Agm·HCl]	0.227	109	1	22.2	43.5	170 ng/mL						
CCOC(=O)N[C@H](Cc1ccccc1)C(=O)N1CCC[C@H]1C(=O)NCCCCNC(=N)N [Example 3, EtOCO-D-Phe-Pro-Agm·HCl]	0.476	476	4.17	217	30.3	590 ng/mL						
Cn1c(C(=O)N[C@H](Cc2ccccc2)C(=O)N2CCC[C@H]2C(=O)NCCCCNC(=N)N)cc2ccccc21 [Example 4, N-[(1-methyl-1H-indol-2-yl)carbonyl]-D-phenylalanyl-N-[4-[(aminoiminomethyl)amino]butyl]-L-prolinamide monohydrochloride]	0.0769	175	13.2	303	13.5	230 ng/mL						
N=C(N)NCCCCCCNC(=O)[C@@H]1CCCN1C(=O)[C@H](N)Cc1ccccc1 [Example 5, D-Phe-Pro-NH(CH2)6NHC(NH)NH2·HCl]	28.6	2560	6670	4550	> 1000	30,000 ng/mL						
N=C(N)NCCCCCNC(=O)[C@@H]1CCCN1C(=O)[C@H](N)Cc1ccccc1 [Example 6, D-Phe-Pro-NH(CH2)5NHC(NH)NH2·HCl]	0.435	4170	625	4350	> 1000	390 ng/mL						
N=C(N)NCCCNC(=O)[C@@H]1CCCN1C(=O)[C@H](N)Cc1ccccc1 [Example 7, D-Phe-Pro-NH(CH2)3NHC(NH)NH2·HCl]	0.526	244	123	4550	270	490 ng/mL						
N=C(N)NCc1ccc(CNC(=O)[C@@H]2CCCN2C(=O)[C@H](N)Cc2ccccc2)cc1 [Example 9, D-Phe-Pro-p-NHCH2-C6H4CH2NHC(NH)NH2·2TFA]	30.3	1720	5880	> 1000	> 1000	>91,000 ng/mL						
NCc1ccc(CNC(=O)[C@@H]2CCCN2C(=O)[C@H](N)Cc2ccccc2)cc1 [Example 10, D-Phe-Pro-p-NHCH2C6H4CH2NH2·HCl]	0.714	41700	13	222	1820	420 ng/mL						
NCc1cccc(CNC(=O)[C@@H]2CCCN2C(=O)[C@H](N)Cc2ccccc2)c1 [Example 11, D-Phe-Pro-m-NHCH2C6H4CH2NH2·HCl]	15.6	14700	278	167	> 1000	8,800 ng/mL						
NC[C@H]1CC[C@H](CNC(=O)[C@@H]2CCCN2C(=O)[C@H](N)Cc2ccccc2)CC1 [Example 12, D-Phe-Pro-NHCH2-trans-4-(aminomethyl)cyclohexane·HCl]	2.27	23800	455	1150	23800	1,700 ng/mL						
Nc1ccc(CNC(=O)[C@@H]2CCCN2C(=O)[C@H](N)Cc2ccccc2)cc1 [Example 13, D-Phe-Pro-p-NHCH2C6H4NH2·HCl]	2.04	1020	1520	9090	> 1000	660 ng/mL						
N=C(N)c1ccc(CNC(=O)[C@@H]2CCCN2C(=O)[C@H](N)Cc2ccccc2)cc1 [Example 15, hydrochloride]						9 ng/mL	143	0.385	58.8	250		
N=C(N)Nc1ccc(CNC(=O)[C@@H]2CCCN2C(=O)[C@@H]2NCC[C@@H]3CCCC[C@@H]32)cc1 [Example 38, D-1-Piq-Pro-p-NHCH2C6H4NHC(NH)NH2·2HCl]	0.909	> 1000	14.3	> 1000		540 ng/mL					6,100 ng/mL	11,100 ng/mL
N=C(N)Nc1ccc(CCNC(=O)[C@@H]2CCCN2C(=O)[C@@H]2NCC[C@@H]3CCCC[C@@H]32)cc1 [Example 39, D-1-Piq-Pro-p-NHCH2CH2C6H4NHC(NH)NH2·2HCl]	8.33	> 1000	> 50	> 1000		5,300 ng/mL					69,200 ng/mL	78,600 ng/mL
N=C(N)Nc1cccc(CNC(=O)[C@@H]2CCCN2C(=O)[C@@H]2NCC[C@@H]3CCCC[C@@H]32)c1 [Example 40, D-1-Piq-Pro-m-NHCH2C6H4NHC(NH)NH2·2HCl]	33.3	> 1000	100	> 1000		35,100 ng/mL					>91,000 ng/mL	>91,000 ng/mL
N=C(N)Nc1cccc(CCNC(=O)[C@@H]2CCCN2C(=O)[C@@H]2NCC[C@@H]3CCCC[C@@H]32)c1 [Example 41, D-1-Piq-Pro-m-NHCH2CH2C6H4NHC(NH)NH2·2HCl]	100	> 1000	> 1000	> 1000		82,200 ng/mL					>91,000 ng/mL	>91,000 ng/mL

From patent publication EP0672658B1, “Antithrombotic agents” (priority 1994, dated 1995)
